These results are taken from EP4786487A1, “PEPTIDE” (Peptidream Inc, priority 2023, dated 2025).

Starred links: 1 amine or outer side, 2 acyl side, 3 side chain; linkers in the order of their positions; H or OH if unused. Positions of bridges follow the written chain, without caps; N, C: chain ends. Non-standard residues stand in square brackets, D forms with d. Residues, ends and D or L forms follow the SMILES beside them. *: point of attachment. Phe(4-(4-pyridyl)) = N[C@@H](Cc1ccc(-c2ccncc2)cc1)C(=O)O; Phe(3-OCH2COOH) = N[C@@H](Cc1cccc(OCC(=O)O)c1)C(=O)O; Phe(4-COOH) = N[C@@H](Cc1ccc(C(=O)O)cc1)C(=O)O; Trp(7-aza) = N[C@@H](Cc1c[nH]c2ncccc12)C(=O)O; Bip = N[C@@H](Cc1ccc(-c2ccccc2)cc1)C(=O)O; Gly(N(CH2)3COOH) = O=C(O)CCCNCC(=O)O; NMeY = CN[C@@H](Cc1ccc(O)cc1)C(=O)O; X1 = CCCCCCC[C@H](N[*:1])C(=O)[*:2]; Gly(cPent) = N[C@H](C(=O)O)C1CCCC1; NMeF = CN[C@@H](Cc1ccccc1)C(=O)O; Ahp(2) = CCCCC[C@H](N)C(=O)O; Carboxymethyl = O=C(O)C*; NMeA = CN[C@@H](C)C(=O)O; Sar = CNCC(=O)O

What all share (type): cell-based
Experiment [1] relates to Myostatin. Kind of experiment: Reporter gene assay for myostatin signaling in HepG2 cell line, Evaluation Procedure (1), myostatin inhibition. The note with it: Method A; GDF-11 IC50 versus Myostatin IC50. Put shortly: (§1)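 HepG2 cells transfected with pGL3(CAGA)12-luciferase reporter, serum-starved in 0.1% BSA medium, then stimulated with myostatin or GDF-11 plus 4-fold peptide dilutions (0.006–100 nmol/L for myostatin, 0.12–2000 nmol/L for GDF-11) for 20–24 h at 37 °C. Luminescence read with One-Glo; IC50 calculated.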
A general note: Reporter assays use an easily measured gene product as a stand-in for the process of interest.

In experiment [2] the target is T1, Myostatin (Homo sapiens, UniProt O14793).
T1 construct: active myostatin (also called mature myostatin) is a homodimer consisting of two C-terminal growth factor domains; purchased R&D systems 788-G8/CF
T1 sequence (O14793 267-375): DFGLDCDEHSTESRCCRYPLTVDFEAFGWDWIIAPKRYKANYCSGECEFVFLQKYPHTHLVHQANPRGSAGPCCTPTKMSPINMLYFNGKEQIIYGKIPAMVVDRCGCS
The description is as above. As to conditions: Method A: Myostatin 10 ng/mL; read-out: IC50 (Luciferase) Myostatin HepG2. Put shortly: as §1

The target of experiment [3] is T2, GDF-11 (Homo sapiens, UniProt O95390).
T2 construct: purchased R&D systems 1958-GD-G8/CF
T2 sequence (O95390 299-407): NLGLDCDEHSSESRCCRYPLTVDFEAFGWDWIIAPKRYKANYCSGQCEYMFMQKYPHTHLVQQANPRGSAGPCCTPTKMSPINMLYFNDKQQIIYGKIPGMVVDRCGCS
Kind of experiment: Reporter gene assay for myostatin signaling in HepG2 cell line, Evaluation Procedure (1), GDF-11 inhibition. As to conditions: Method A: GDF-11 10 ng/mL; read-out: IC50 (Luciferase) GDF-11 HepG2. Put shortly:
as §1

One may read the IC50 as the midpoint of a concentration-inhibition curve.

The compound `CC[C@H](C)[C@@H]1NC(=O)[C@H](Cc2ccccc2)N(C)C(=O)[C@H](Cc2ccc(O)cc2)NC(=O)[C@H](Cc2ccc(-c3ccncc3)cc2)NC(=O)[C@H](C)NC(=O)[C@H](C)NC(=O)CSC[C@H](C(=O)O)NC(=O)[C@H](Cc2ccccc2)N(C)C(=O)[C@H](C)N(C)C(=O)[C@H](CC(C)C)NC(=O)[C@H](Cc2ccccc2)N(C)C(=O)[C@H](CCCNC(=N)N)NC(=O)[C@H](Cc2ccc(OCC(=O)O)cc2)NC(=O)[C@H](Cc2cccc(OCC(=O)O)c2)NC(=O)CN(C)C1=O` [Myostatin_99_v107] ({CH2CO}-AA[Phe(4-(4-pyridyl))]Y[NMeF]I[Sar][Phe(3-OCH2COOH)]Y(Carboxymethyl)R[NMeF]L[NMeA][NMeF][dC]-OH; thioether N-15) registered a Selectivity in experiment [1] of 166. The values for the IC50 in experiment [2] and in experiment [3] were 2.8 nM and 466 nM, respectively.

Compound `CC[C@H](C)[C@@H]1NC(=O)[C@H](Cc2ccccc2)N(C)C(=O)[C@H](Cc2ccc(O)cc2)NC(=O)[C@H](Cc2ccc(-c3ccccc3)cc2)NC(=O)[C@H](C)NC(=O)[C@H](C)NC(=O)CSC[C@H](C(=O)O)NC(=O)[C@H](Cc2ccccc2)N(C)C(=O)[C@H](C)N(C)C(=O)[C@H](CC(C)C)NC(=O)[C@H](Cc2ccccc2)N(C)C(=O)[C@H](CCCNC(=N)N)NC(=O)[C@H](Cc2ccc(OCC(=O)O)cc2)NC(=O)[C@H](Cc2cccc(OCC(=O)O)c2)NC(=O)CN(C)C1=O` [Myostatin_99_v108] ({CH2CO}-AA[Bip]Y[NMeF]I[Sar][Phe(3-OCH2COOH)]Y(Carboxymethyl)R[NMeF]L[NMeA][NMeF][dC]-OH; thioether N-15) displayed a Selectivity in experiment [1] of 104. Further, the IC50 in experiment [2] was found to be 3.6 nM; in experiment [3], 374 nM.

`CCCCC[C@@H]1NC(=O)[C@H](Cc2ccccc2)N(C)C(=O)[C@H](CCCNC(=N)N)NC(=O)[C@H](Cc2ccc(C(=O)O)cc2)NC(=O)[C@H](Cc2cccc(OCC(=O)O)c2)NC(=O)CN(C)C(=O)[C@H]([C@@H](C)CC)NC(=O)[C@H](Cc2ccc(O)cc2)N(C)C(=O)[C@H](Cc2ccc(O)cc2)NC(=O)[C@H](Cc2ccc(-c3ccccc3)cc2)NC(=O)[C@H](C)NC(=O)CN(CCCC(=O)O)C(=O)CSC[C@H](C(=O)O)NC(=O)[C@H](Cc2ccccc2)N(C)C(=O)[C@H](C)N(C)C1=O` [Myostatin_99_v116] ({CH2CO}-[Gly(N(CH2)3COOH)]A[Bip]Y[NMeY]I[Sar][Phe(3-OCH2COOH)][Phe(4-COOH)]R[NMeF][Ahp(2)][NMeA][NMeF][dC]-OH; thioether N-15): the Selectivity in experiment [1] came to 364. Further, the values for the IC50 in experiment [2] and in experiment [3] were 5.4 nM and 1960 nM, respectively.

Turning to `CCCCCCC[C@@H]1NC(=O)[C@H](Cc2ccccc2)N(C)C(=O)[C@H](CCCNC(=N)N)NC(=O)[C@H](Cc2ccc(C(=O)O)cc2)NC(=O)[C@H](Cc2cccc(OCC(=O)O)c2)NC(=O)CN(C)C(=O)[C@H]([C@@H](C)CC)NC(=O)[C@H](Cc2ccc(O)cc2)N(C)C(=O)[C@H](Cc2ccc(O)cc2)NC(=O)[C@H](Cc2ccc(-c3ccccc3)cc2)NC(=O)[C@H](C)NC(=O)CN(CCCC(=O)O)C(=O)CSC[C@H](C(=O)O)NC(=O)[C@H](Cc2ccccc2)N(C)C(=O)[C@H](C)N(C)C1=O` [Myostatin_99_v117] ({CH2CO}-[Gly(N(CH2)3COOH)]A[Bip]Y[NMeY]I[Sar][Phe(3-OCH2COOH)][Phe(4-COOH)]R[NMeF][X1][NMeA][NMeF][dC]-OH; thioether N-15), the Selectivity in experiment [1] is recorded as 419. The values for the half-maximal inhibitory concentration (IC50) in experiment [2] and in experiment [3] were 1.7 nM and 713 nM, respectively.

In experiment [1], `CC[C@H](C)[C@@H]1NC(=O)[C@H](Cc2ccccc2)N(C)C(=O)[C@H](Cc2ccc(O)cc2)NC(=O)[C@H](Cc2ccc(-c3ccncc3)cc2)NC(=O)[C@H](C)NC(=O)CN(CCCC(=O)O)C(=O)CSC[C@H](C(N)=O)NC(=O)[C@H](Cc2ccccc2)N(C)C(=O)[C@H](C)N(C)C(=O)[C@H](CC(C)C)NC(=O)[C@H](Cc2ccccc2)N(C)C(=O)[C@H](CCCNC(=N)N)NC(=O)[C@H](Cc2ccc(OCC(=O)O)cc2)NC(=O)[C@H](Cc2cccc(OCC(=O)O)c2)NC(=O)[C@H](C)N(C)C1=O` [Myostatin_99_v123] ({CH2CO}-[Gly(N(CH2)3COOH)]A[Phe(4-(4-pyridyl))]Y[NMeF]I[NMeA][Phe(3-OCH2COOH)]Y(Carboxymethyl)R[NMeF]L[NMeA][NMeF][dC]-NH2; thioether N-15) registered a Selectivity of 194. Further, the half-inhibitory concentration (IC50) in experiment [2] amounted to 38.1 nM; in experiment [3] it was 7390 nM.

The compound `CC[C@H](C)[C@@H]1NC(=O)[C@H](Cc2ccccc2)N(C)C(=O)[C@H](Cc2ccc(O)cc2)NC(=O)[C@H](Cc2c[nH]c3ccccc23)NC(=O)[C@H](C)NC(=O)CN(CCCC(=O)O)C(=O)CSC[C@H](C(=O)O)NC(=O)[C@H](Cc2ccccc2)N(C)C(=O)[C@H](C)N(C)C(=O)[C@H](CC(C)C)NC(=O)[C@H](Cc2ccccc2)N(C)C(=O)[C@H](CCCNC(=N)N)NC(=O)[C@H](Cc2ccc(OCC(=O)O)cc2)NC(=O)[C@H](Cc2cccc(OCC(=O)O)c2)NC(=O)[C@H](C)N(C)C1=O` [Myostatin_99_v124] ({CH2CO}-[Gly(N(CH2)3COOH)]AWY[NMeF]I[NMeA][Phe(3-OCH2COOH)]Y(Carboxymethyl)R[NMeF]L[NMeA][NMeF][dC]-OH; thioether N-15) registered a Selectivity in experiment [1] of 133. The figures for the concentration for half-maximal inhibition (IC50) in experiment [2] and in experiment [3] were 17.1 nM and 2270 nM, respectively.

Turning to `CC(C)C[C@@H]1NC(=O)[C@H](Cc2ccccc2)N(C)C(=O)[C@H](CCCNC(=N)N)NC(=O)[C@H](Cc2ccc(OCC(=O)O)cc2)NC(=O)[C@H](Cc2cccc(OCC(=O)O)c2)NC(=O)[C@H](C)N(C)C(=O)[C@H](C2CCCC2)NC(=O)[C@H](Cc2ccccc2)N(C)C(=O)[C@H](Cc2ccc(O)cc2)NC(=O)[C@H](Cc2ccc(-c3ccncc3)cc2)NC(=O)[C@H](C)NC(=O)CN(CCCC(=O)O)C(=O)CSC[C@H](C(=O)O)NC(=O)[C@H](Cc2ccccc2)N(C)C(=O)[C@H](C)N(C)C1=O` [Myostatin_99_v135] ({CH2CO}-[Gly(N(CH2)3COOH)]A[Phe(4-(4-pyridyl))]Y[NMeF][Gly(cPent)][NMeA][Phe(3-OCH2COOH)]Y(Carboxymethyl)R[NMeF]L[NMeA][NMeF][dC]-OH; thioether N-15), the Selectivity in experiment [1] is on record as 145. Moreover, the figures for the IC50 in experiment [2] and in experiment [3] were 22.6 nM and 3290 nM, respectively.

`CC[C@H](C)[C@@H]1NC(=O)[C@H](Cc2ccccc2)N(C)C(=O)[C@H](Cc2ccc(O)cc2)NC(=O)[C@H](Cc2c[nH]c3ccccc23)NC(=O)[C@H](C)NC(=O)CN(CCCC(=O)O)C(=O)CSC[C@H](C(=O)O)NC(=O)[C@H](Cc2ccccc2)N(C)C(=O)[C@H](C)N(C)C(=O)[C@H](CC(C)C)NC(=O)[C@H](Cc2ccccc2)N(C)C(=O)[C@H](CCCNC(=N)N)NC(=O)[C@H](Cc2ccc(C(=O)O)cc2)NC(=O)[C@H](Cc2cccc(OCC(=O)O)c2)NC(=O)[C@H](C)N(C)C1=O` [Myostatin_99_v144] ({CH2CO}-[Gly(N(CH2)3COOH)]AWY[NMeF]I[NMeA][Phe(3-OCH2COOH)][Phe(4-COOH)]R[NMeF]L[NMeA][NMeF][dC]-OH; thioether N-15): the Selectivity in experiment [1] is given as 169. Also, the IC50 was determined as 16.3 nM in experiment [2] and 2760 nM in experiment [3].

In the case of `CCCCCCC[C@@H]1NC(=O)[C@H](Cc2ccccc2)N(C)C(=O)[C@H](CCCNC(=N)N)NC(=O)[C@H](Cc2ccc(C(=O)O)cc2)NC(=O)[C@H](Cc2cccc(OCC(=O)O)c2)NC(=O)[C@H](C)N(C)C(=O)[C@H]([C@@H](C)CC)NC(=O)[C@H](Cc2ccccc2)N(C)C(=O)[C@H](Cc2ccc(O)cc2)NC(=O)[C@H](Cc2c[nH]c3ncccc23)NC(=O)[C@H](C)NC(=O)CN(CCCC(=O)O)C(=O)CSC[C@H](C(=O)O)NC(=O)[C@H](Cc2ccccc2)N(C)C(=O)[C@H](C)N(C)C1=O` [Myostatin_99_v148] ({CH2CO}-[Gly(N(CH2)3COOH)]A[Trp(7-aza)]Y[NMeF]I[NMeA][Phe(3-OCH2COOH)][Phe(4-COOH)]R[NMeF][X1][NMeA][NMeF][dC]-OH; thioether N-15), the Selectivity in experiment [1] was 293. Besides, the values for the IC50 in experiment [2] and in experiment [3] were 1.5 nM and 439 nM, respectively.

`CCCCCCC[C@@H]1NC(=O)[C@H](Cc2ccccc2)N(C)C(=O)[C@H](CCCNC(=N)N)NC(=O)[C@H](Cc2ccc(OCC(=O)O)cc2)NC(=O)[C@H](Cc2cccc(OCC(=O)O)c2)NC(=O)[C@H](C)N(C)C(=O)[C@H]([C@@H](C)CC)NC(=O)[C@H](Cc2ccccc2)N(C)C(=O)[C@H](Cc2ccc(O)cc2)NC(=O)[C@H](Cc2c[nH]c3ccccc23)NC(=O)[C@H](C)NC(=O)CN(CCCC(=O)O)C(=O)CSC[C@H](C(=O)O)NC(=O)[C@H](Cc2ccccc2)N(C)C(=O)[C@H](C)N(C)C1=O` [Myostatin_99_v150] ({CH2CO}-[Gly(N(CH2)3COOH)]AWY[NMeF]I[NMeA][Phe(3-OCH2COOH)]Y(Carboxymethyl)R[NMeF][X1][NMeA][NMeF][dC]-OH; thioether N-15) had a Selectivity in experiment [1] of 232. In addition, the IC50 in experiment [2] is 1.7 nM; in experiment [3] it was 395 nM.
